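48-hour exposure; five concentrations; linearly interpolated endpoints. Definition used: TGI = concentration required for complete inhibition of growth.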
How the values were obtained:
Assay in all cases: growth of human tumour cells (NCI), 48 h
[1] = tested on: HOP-62 NSCLC
[2] = tested on: HS 578T breast
[3] = tested on: LOX IMVI melanoma
[4] = tested on: M14 melanoma
[5] = tested on: MDA-N
[6] = tested on: MOLT-4 leukemia
[7] = tested on: OVCAR-5 ovarian
[8] = tested on: RPMI-8226 leukemia
[9] = tested on: SK-MEL-5 melanoma
[10] = tested on: SR leukemia
[11] = tested on: U251 CNS
[12] = tested on: UACC-257 melanoma

| SMILES | TGI [1] | TGI [2] | TGI [3] | TGI [4] | TGI [5] | TGI [6] | TGI [7] | TGI [8] | TGI [9] | TGI [10] | TGI [11] | TGI [12] |
| --- | --- | --- | --- | --- | --- | --- | --- | --- | --- | --- | --- | --- |
| c1cc2nnc1SCCSCCSc1ccc(nn1)SCCSCCS2 | > 100 µM | > 100 µM | > 100 µM | > 100 µM | > 100 µM | > 100 µM | > 100 µM | > 100 µM | > 100 µM | > 100 µM | > 100 µM | > 100 µM |
| CC(=O)C(CN1CCCCC1)C(c1ccccc1)c1c(O)c2ccccc2oc1=O (stereo not given) | > 100 µM | > 100 µM | > 100 µM | > 100 µM | > 100 µM | > 100 µM | > 100 µM | > 100 µM | > 100 µM | > 100 µM | > 100 µM | > 100 µM |
| Cc1cc2c(c(C(=O)NCCC(=O)O)c1)Oc1c(cc(C)cc1C(=O)NCCC(=O)O)S2 | > 100 µM | > 100 µM | > 100 µM | > 100 µM | > 100 µM | > 100 µM | > 100 µM | > 100 µM |  | > 100 µM | > 100 µM | > 100 µM |
| CC(C)=CCN1CC(C)C(=O)Nc2cc(Cl)ccc21 (stereo not given) | 81.4 µM | > 100 µM | 32.4 µM | 43.3 µM | 54.6 µM | > 100 µM | > 100 µM | > 100 µM | 26.5 µM | > 100 µM | > 100 µM | 36 µM |
| CCOC(=O)c1sc2nc(SC)nc3c2c1N=CN3c1ccc(Br)cc1 | > 100 µM | > 100 µM | > 100 µM | > 100 µM | > 100 µM | > 100 µM | > 100 µM | > 100 µM | > 100 µM | > 100 µM | > 100 µM | > 100 µM |
| O=C1CC(c2ccco2)C2(C(=O)NC(=O)NC2=O)C(c2ccco2)C1 (stereo not given) | > 75 µM | > 75 µM | > 75 µM | > 75 µM | > 75 µM | > 75 µM | > 75 µM | > 75 µM | > 75 µM | > 75 µM | > 75 µM | > 75 µM |
| CC12CC(c3ccccc3O1)C(C(=O)Nc1ccc(F)cc1)C(=O)N2 (stereo not given) | > 100 µM | > 100 µM | > 100 µM | > 100 µM | > 100 µM | 76.5 µM | > 100 µM | > 100 µM | > 100 µM | > 100 µM | > 100 µM | > 100 µM |
| N#CC1=C(N)OC2=C(CSc3ccccc32)C1c1ccc(Br)cc1 (stereo not given) | 32.7 µM | > 100 µM | 11.2 µM | 39.8 µM | 14.4 µM | 8.44 µM | 32.7 µM | 5.52 µM | 25.7 µM | 10.3 µM | 19.9 µM | 30.2 µM |
| Nc1nc(Cl)cc(NCC2(CO)CC(CCc3ccccc3)C2)n1 (stereo not given) | > 100 µM | > 100 µM | > 100 µM | > 100 µM | > 100 µM | > 100 µM | > 100 µM | > 100 µM | > 38.1 µM | > 88.8 µM | > 100 µM | > 100 µM |
| Clc1nc(Cl)nc(NC23CC4CC(CC(C4)C2)C3)n1 | 34.5 µM | 28.9 µM | 26.9 µM | 33.6 µM | 35.3 µM | 51.2 µM | 39.5 µM | 38.4 µM | 26.6 µM | 47.7 µM | 30.5 µM | 42.3 µM |
| c1cc(-c2cnc(-c3ccc4c(c3)CCCO4)o2)ccn1 | 30.1 µM | 42.2 µM | 29.7 µM | 33 µM | 27.8 µM | 22.2 µM | 44.5 µM | 23.6 µM | 25.4 µM | 13.4 µM | 78.5 µM | 28.8 µM |
| Cc1ccc(N=Nc2c3c(c(O)c4ccccc24)CCC(C)(C)O3)cc1 | 36.6 µM | 84.4 µM | 28.6 µM | 32.6 µM | 14.1 µM | > 100 µM | 34.8 µM | > 100 µM | 15.7 µM | 38.8 µM | > 100 µM | 23 µM |
| COc1ccc(Nc2c(C#N)c3n(c4ccccc24)c2ccccc2[n+]3C)cc1OC | 23.6 µM | 11.3 µM | 7.23 µM | 8.01 µM | 7.21 µM | > 29.5 µM | 10.4 µM | > 25.1 µM | 15.5 µM | > 100 µM | 17.9 µM | 17 µM |
| CCCCN(CC)c1nc(C)nc2c1c(C)c(C)n2-c1c(C)cc(C)cc1C | 32.9 µM | 38 µM | 30.4 µM | 35.6 µM | 38.6 µM | 30.1 µM | 28.8 µM | 30.1 µM | 17.6 µM | 31.9 µM | 23.9 µM | 26.9 µM |
| Cc1c(Cl)ccc2c(=O)c3cccc(CC(=O)O)c3oc12 | > 100 µM | > 100 µM | > 100 µM | > 100 µM | > 100 µM | > 100 µM |  | > 100 µM | > 100 µM | > 100 µM | > 100 µM | > 100 µM |
| COC(=O)C1(Cc2ccccc2)Cc2cc3c(cc2C1=O)CCC3 (stereo not given) | > 100 µM | > 100 µM | 79.1 µM | 57.6 µM | 37.3 µM | 43.1 µM | > 100 µM | 52.5 µM | 33 µM | 47.2 µM | > 100 µM | > 100 µM |

— PubChem BioAssay (NCI)
